From PubChem BioAssay AID248 (DTP/NCI, 2004)
Several values for one entry are separate records, joined by “and”; a condition that tells them apart may be missing. Equal entries are not always repeated. Inconclusive results and toxic doses are left out.

Test system: L1210 leukemia ip in BDF1 mice, survival T/C
Assay: NCI In Vivo Anticancer Drug Screen. Data for tumor model L1210 Leukemia (intraperitoneal) in B6D2F1 (BDF1) mice
Details: endpoint: mean survival time, higher = longer survival
Method in brief: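 Tumor cells were implanted, animals were treated, and survival was followed. The result divides the treated measurement by the vehicle-control measurement.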

[1] = dose: 100.0 mg/kg/injection, schedule: Q01DX001 (ip), vehicle: saline with Tween-80
[2] = dose: 200.0 mg/kg/injection, schedule: Q01DX001 (ip), vehicle: saline with Tween-80

Q: Which T/C (dose: 75.0 mg/kg/injection, schedule: Q01DX009 (ip), vehicle: saline) does the source give for `CC(=O)NCC1CCCO1` (stereo not given) here?
A: 112 % of control

Q: What about the T/C (dose: 100.0 mg/kg/injection, schedule: Q04DX003 (ip), vehicle: saline) of the same compound?
A: 105 % of control

Q: And the T/C (dose: 150.0 mg/kg/injection, schedule: Q01DX009 (ip), vehicle: saline)?
A: 103 % of control

Q: What about the T/C (dose: 200.0 mg/kg/injection, schedule: Q04DX003 (ip), vehicle: saline) of the same compound?
A: 108 % of control

Q: And the T/C (dose: 300.0 mg/kg/injection, schedule: Q01DX009 (ip), vehicle: saline)?
A: 103 % of control

Q: And the T/C (dose: 400.0 mg/kg/injection, schedule: Q04DX003 (ip), vehicle: saline)?
A: 106 % of control

Q: How did the T/C (dose: 100.0 mg/kg/injection, schedule: Q01DX001 (ip), vehicle: other) turn out when `CCCCNS(=O)(=O)c1n[nH]c(=O)[nH]c1=O` was run?
A: 104 % of control

Q: What about the T/C (dose: 200.0 mg/kg/injection, schedule: Q01DX001 (ip), vehicle: other) of the same compound?
A: 101 % of control

Q: And the T/C (dose: 400.0 mg/kg/injection, schedule: Q01DX001 (ip), vehicle: other)?
A: 93 % of control

Q: Which results are given for `CC(C)CN1C(c2ccccc2)=CN(Cc2ccccc2)C=C1c1ccccc1`?
A: T/C (dose: 100.0 mg/kg/injection, schedule: Q04DX002 (ip), vehicle: Klucel (hydroxypropylcellulose) (HPC)): 100 % of control; T/C (dose: 200.0 mg/kg/injection, schedule: Q04DX002 (ip), vehicle: Klucel (hydroxypropylcellulose) (HPC)): 120 % of control; T/C (dose: 400.0 mg/kg/injection, schedule: Q04DX002 (ip), vehicle: Klucel (hydroxypropylcellulose) (HPC)): 113 % of control

Q: What does the source list for `CC(C)CSC(C(O)C(O)C(O)CO)n1ccc(N)nc1=O` (stereo not given)?
A: T/C (dose: 100.0 mg/kg/injection, schedule: Q01DX005 (ip), vehicle: saline): 90 % of control; T/C (dose: 200.0 mg/kg/injection, schedule: Q01DX005 (ip), vehicle: saline): 98 % of control

Q: Which results are given for `CN(C)c1ccc(/C=N/NC(=O)CCCCCCCCC(=O)N/N=C/c2ccc(N(C)C)cc2)cc1`?
A: T/C (dose: 12.5 mg/kg/injection, schedule: Q01DX009 (ip), vehicle: saline with Tween-80): 101 % of control and 104 % of control; T/C (dose: 25.0 mg/kg/injection, schedule: Q01DX009 (ip), vehicle: saline with Tween-80): 94 % of control and 97 % of control; T/C (dose: 50.0 mg/kg/injection, schedule: Q04DX003 (ip), vehicle: saline with Tween-80): 98 % of control; T/C [1]: 100 % of control; T/C (dose: 100.0 mg/kg/injection, schedule: Q04DX002 (ip), vehicle: saline with Tween-80): 101 % of control and 104 % of control; T/C (dose: 100.0 mg/kg/injection, schedule: Q04DX003 (ip), vehicle: saline with Tween-80): 93 % of control; T/C [2]: 100 % of control; T/C (dose: 200.0 mg/kg/injection, schedule: Q04DX002 (ip), vehicle: saline with Tween-80): 101 % of control and 102 % of control; T/C (dose: 400.0 mg/kg/injection, schedule: Q04DX002 (ip), vehicle: saline with Tween-80): 108 % of control

Q: What does the source list for `CCC(C)c1ccccc1OC(=O)Nc1ccc(OC)cc1` (stereo not given)?
A: T/C (dose: 50.0 mg/kg/injection, schedule: Q01DX009 (ip), vehicle: Klucel (hydroxypropylcellulose) (HPC)): 105 % of control; T/C (dose: 100.0 mg/kg/injection, schedule: Q01DX009 (ip), vehicle: Klucel (hydroxypropylcellulose) (HPC)): 92 % of control; T/C (dose: 100.0 mg/kg/injection, schedule: Q04DX003 (ip), vehicle: Klucel (hydroxypropylcellulose) (HPC)): 96 % of control; T/C (dose: 200.0 mg/kg/injection, schedule: Q01DX009 (ip), vehicle: Klucel (hydroxypropylcellulose) (HPC)): 95 % of control; T/C (dose: 200.0 mg/kg/injection, schedule: Q04DX003 (ip), vehicle: Klucel (hydroxypropylcellulose) (HPC)): 94 % of control; T/C (dose: 400.0 mg/kg/injection, schedule: Q04DX003 (ip), vehicle: Klucel (hydroxypropylcellulose) (HPC)): 100 % of control

Q: Which T/C [1] does the source give for `O=C1c2ccccc2CC/C(=N\O)C1c1ccccc1` (stereo not given) here?
A: 107 % of control

Q: And the T/C [2]?
A: 98 % of control

Q: And the T/C (dose: 400.0 mg/kg/injection, schedule: Q01DX001 (ip), vehicle: saline with Tween-80)?
A: 104 % of control

Q: For `Cc1cc(NC(=O)c2ccc(C(=O)Nc3ccc(C4=NCCN4)c(C)c3)cc2)ccc1C1=NCCN1`, which T/C (dose: 48.0 mg/kg/injection, schedule: Q01DX Z (ip), vehicle: carboxymethylcellulose (CMC)) is on record?
A: 109 % of control

Q: What about the T/C (dose: 72.0 mg/kg/injection, schedule: Q01DX Z (ip), vehicle: carboxymethylcellulose (CMC)) of the same compound?
A: 122 % of control

Q: And the T/C (dose: 100.0 mg/kg/injection, schedule: Q01DX Z (oral), vehicle: water)?
A: 92 % of control

Q: What about the T/C (dose: 110.0 mg/kg/injection, schedule: Q01DX Z (ip), vehicle: carboxymethylcellulose (CMC)) of the same compound?
A: 150 % of control and 277 % of control

Q: And the T/C (dose: 168.0 mg/kg/injection, schedule: Q01DX Z (ip), vehicle: carboxymethylcellulose (CMC))?
A: 164 % of control

Q: What about the T/C (dose: 200.0 mg/kg/injection, schedule: Q01DX Z (oral), vehicle: water) of the same compound?
A: 107 % of control

Q: And the T/C (dose: 250.0 mg/kg/injection, schedule: Q01DX Z (ip), vehicle: carboxymethylcellulose (CMC))?
A: 108 % of control and 112 % of control

Q: What about the T/C (dose: 375.0 mg/kg/injection, schedule: Q01DX Z (ip), vehicle: carboxymethylcellulose (CMC)) of the same compound?
A: 92 % of control

Q: What about the T/C (dose: 400.0 mg/kg/injection, schedule: Q01DX Z (oral), vehicle: water) of the same compound?
A: 92 % of control

Q: What about the T/C (dose: 800.0 mg/kg/injection, schedule: Q01DX Z (oral), vehicle: water) of the same compound?
A: 102 % of control

Q: What does the source list for `C=C(Br)CN=C=S`?
A: T/C (dose: 12.5 mg/kg/injection, schedule: Q01DX009 (ip), vehicle: saline): 96 % of control; T/C (dose: 25.0 mg/kg/injection, schedule: Q01DX009 (ip), vehicle: saline): 104 % of control; T/C (dose: 50.0 mg/kg/injection, schedule: Q01DX009 (ip), vehicle: saline): 102 % of control
